Consider seven molecules from patent US20210163471A1, “PROGRANULIN MODULATORS AND METHODS OF USING THE SAME” (ARKUDA THERAPEUTICS, priority 2017, published 2021).

Structures are written as SMILES. Like-named read-outs stand apart in the source and are kept apart here. Where only a bound is given, the exact number is not on record here.

The subject of this test is BV-2 (mouse microglia) cells. The test can be described thus: progranulin secretion from BV-2 cells, mouse progranulin ELISA of conditioned media. It counts as cell-based. Particulars: for EC50: BV-2 cells, 16 hours incubation, 8-point curves starting at 10 μM, assay run v2 (same protocol, different assay), read-out: PRGN v2 (EC50, progranulin secretion). In a few lines: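 Mouse BV-2 microglia plated at 30,000 cells/well in RPMI/L-glutamine with 2% Fetal clone serum II, 1 h attachment. Treated for 16 h with 8-point half-log dilutions from 10 μM. Secreted progranulin measured by mouse progranulin ELISA on 1:10-diluted conditioned media.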

For `CC1(C)[C@@H](OC(=O)N2CCc3ccccc3[C@@H]2c2ccc(F)cc2)C2CCN1CC2` [Compound 1144], the EC50 – broadly, the concentration at which the effect is half-maximal – is more than 10 µM.

Consider `CC1(C)[C@H](OC(=O)N2CCc3ccccc3[C@@H]2c2ccc(F)cc2)C2CCN1CC2` [Compound 1145], for which the EC50 was determined as 0.57 µM.

With `COCCOCCOCCNC(=O)c1ccc([C@H]2c3ccccc3CCN2C(=O)O[C@@H]2CN3CCC2CC3)cc1` [Compound 1146], the 50% effective concentration (EC50) (Mus musculus) was more than 10 µM.

On to `COCCOCCOCCNC(=O)c1ccc([C@@H]2c3ccccc3CCN2C(=O)O[C@@H]2CN3CCC2CC3)cc1` [Compound 1147], for which, under “Mus musculus”, the EC50 is more than 10 µM.

For the molecule `CC1(C)[C@@H](OC(=O)N2CCc3ccccc3[C@@H]2c2cccc(F)c2F)C2CCN1CC2` [Compound 1148], the EC50 (Mus musculus) was more than 10 µM.

`CC1(C)C(OC(=O)N2CCc3ccccc3[C@H]2c2cccc(F)c2F)C2CCN1CC2` (stereo partly shown) [Compound 1149]: the EC50 (Mus musculus) was found to be 0.43 µM.

As for `O=C(O[C@H]1CN2CCC1CC2)N1CCc2ccccc2[C@@H]1c1ccccc1` [Solifenacin, solifenacin, reference compound], the “secretion of progranulin from mouse BV2 cells” value (mouse BV2 cells) is given as “causes the secretion of progranulin from mouse BV2 cells”.
